In one assay the target is T1, LRRK2^WT (Mus musculus, UniProt Q5S006).
T1 construct: endogenous in cells; host or cells: primary wild-type mouse embryonic fibroblasts (MEFs)
Nature of the assay: Western blot LRRK2 degradation in WT MEFs. It is filed as cell-based. The following applies: dose response, 4 h treatment; for Dmax: read-out: Dmax on WT MEFs. How it is done:
Western blot degradation assays for the LRRK2 protacs were performed with WT and PD-associated LRRK2 [G2019S] mouse embryonic fibroblasts (MEFs). The second-generation PROTACs were tested in parallel with the first generation PROTACs SD75, SD82, and SD100. The compounds were tested at 33 nM or […] concentrations for 4 hours or 24 hours, running two biological replicates per condition and achieving quantifications representative of both replicates. Analysis by quantitative immunoblotting was performed with readouts of the total LRRK2 (antibody recognizes epitope in C-terminus of protein), Rab10 pThr73 (physiological substrate) and LRRK2 pSer935 (biomarker phosphorylation site).
(§1) Primary MEFs were generated as described in a previous study (Wiggin et al., Mol. Cell Biol. 2002 April; 22(8):2871-81.). Briefly, the uterine horn was collected from adult female mice at day E12.5 and transferred to a 10 cm tissue culture dish containing cold PBS. Two forceps were used to tear the yolk sacs to isolate each embryo. Forceps were cleaned thoroughly with 70% ethanol between each embryo isolation. The embryos were culled, and a tissue piece was collected in a PCR tube for genotyping. The red tissue of the embryo, which grows to become the heart and liver, was removed. The remainder of the embryo was minced with a scalpel blade and incubated with 7.5 ml trypsin-EDTA solution for 10 minutes in a 37° C. tissue culture CO2 incubator. The dish was removed from the incubator and checked under a light microscope for single cells. 7.5 ml complete media was added to the trypsinised cells, and the cell suspension was transferred to a 15 ml Falcon tube, centrifuged at 1200 rpm for 5 minutes at room temperature. The trypsin was aspirated, the cell pellet was resuspended in 5 ml fresh complete media, and the cell suspension was plated in a 60 mm tissue culture dish and incubated in a 37° C., 5% CO2 tissue culture incubator. The MEFs at this stage were considered as passage 0 and were passaged and expanded for experimental use once the genotype was confirmed by allelic sequencing and immunoblotting. MEFs were cultured in Dulbecco's modified Eagle medium (DMEM) containing 10% (v/v) fetal bovine serum (FBS), 2 mM L-glutamine, 100 U/ml penicillin, and 100 μg/ml streptomycin supplemented with 1× non-essential amino acids and 1 mM sodium pyruvate.
Culturing and passaging of adherent cell lines were carried out using aseptic technique in CL1 or CL2 (for PBMC isolation) biological safety cabinets. All cells were incubated in a 37° C. incubator with 5% CO2. Cell lines were regularly tested for mycoplasma contamination. For western blot assay, the cells were seeded in 6-well plates. After treating with testing compounds at indicated concentrations and time period, the media was removed and the cells were washed with PBS and lysed in 100 μl ice-cold complete lysis buffer containing 50 mM Tris-HCl pH 7.4, 1 mM EGTA, 10 mM 2-glycerophosphate, 50 mM sodium fluoride, 5 mM sodium pyrophosphate, 270 mM sucrose, supplemented with 1 μg/ml microcystin-LR, 1 mM sodium orthovanadate, complete EDTA-free protease inhibitor cocktail (Roche) and 1% (v/v) Triton X-100. The cells were immediately placed on ice and were scraped and collected into 1.5 ml Eppendorf tubes. Cell lysates were incubated on ice for 10 minutes prior to centrifugation at 15,000 g at 4° C. for 15 minutes. The cell pellet was discarded, and supernatant was collected for analysis by quantitative immunoblotting. For long term storage, the supernatant was flash frozen and stored at −80° C. Protein concentrations of cell lysates were determined using the Bradford assay.
Cell lysates containing a quarter of a volume of 4× NuPAGE LDS sample buffer (NP0007) supplemented with 5% β-mercaptoethanol, were heated at 95° C. for 5 minutes. […]
For orientation: In western blotting, separated proteins are transferred to a membrane and probed.

The next assay addresses T2, LRRK2^G2019S (Mus musculus, UniProt Q5S006, G2019S).
T2 construct: endogenous in cells; host or cells: LRRK2[G2019S] mouse embryonic fibroblasts (MEFs)
The experiment in a line: Western blot LRRK2 degradation in LRRK2^G2019S MEFs. It is filed as cell-based. The following applies: dose response, 4 h treatment; for Dmax: read-out: Dmax on G2019S MEFs. How it is done: The second-generation PROTACs were tested in parallel with the first generation PROTACs SD75, SD82, and SD100. The compounds were tested at 33 nM or […] concentrations for 4 hours or 24 hours, running two biological replicates per condition and achieving quantifications representative of both replicates. Analysis by quantitative immunoblotting was performed with readouts of the total LRRK2 (antibody recognizes epitope in C-terminus of protein), Rab10 pThr73 (physiological substrate) and LRRK2 pSer935 (biomarker phosphorylation site).
as §1
Culturing and passaging of adherent cell lines were carried out using aseptic technique in CL1 or CL2 (for PBMC isolation) biological safety cabinets. All cells were incubated in a 37° C. incubator with 5% CO2. Cell lines were regularly tested for mycoplasma contamination. For western blot assay, the cells were seeded in 6-well plates. […] The cells were immediately placed on ice and were scraped and collected into 1.5 ml Eppendorf tubes. Cell lysates were incubated on ice for 10 minutes prior to centrifugation at 15,000 g at 4° C. for 15 minutes. The cell pellet was discarded, and supernatant was collected for analysis by quantitative immunoblotting. For long term storage, the supernatant was flash frozen and stored at −80° C. Protein concentrations of cell lysates were determined using the Bradford assay.
Cell lysates containing a quarter of a volume of 4× NuPAGE LDS sample buffer (NP0007) supplemented with 5% β-mercaptoethanol, were heated at 95° C. for 5 minutes. 15 to 20 μg of samples were loaded onto pre-cast 4-12% Bis-Tris midi 20W or 26W gels (Thermofisher Scientific®, Cat #WG1402BOX or WG1403BOX) and resolved at 130 V for 2 hours with NuPAGE MOPS SDS running buffer (Thermofisher Scientific® Cat #NP0001-02). Proteins were electrophoretically transferred onto a 0.45 μm nitrocellulose membrane (GE Healthcare, Amersham Protran® Supported 0.45 mm NC) at 90 V for 90 min on ice in transfer buffer (48 mM Tris base and 39 mM glycine supplemented with 20% methanol). The transferred membrane was blocked with 5% (w/v) skim milk powder dissolved in tris-buffered saline with tween (TBS-T) (50 mM Tris base, 150 mM sodium chloride (NaCl), 0.1% (v/v) Tween-20) at room temperature for 1 hour.

The subject of assay [1] is Rab10 pThr73. Nature of the assay: Rab10 Thr73 dephosphorylation (immunoblot) in WT MEFs. The following applies: Mus musculus; for inhibition at 0.033 µM / inhibition at 1 µM: read-out: pRab10 inhibited in WT MEFs; for EC50: dose response, 4 h treatment, read-out: WT MEFs pRab10-dephosphrylation EC50. It is filed as cell-based, mouse. Summed up:
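Wild-type mouse embryonic fibroblasts in 6-well plates were treated with LRRK2 PROTACs, with two biological replicates per condition. Cells were washed in PBS and lysed on ice in buffer containing phosphatase and protease inhibitors plus 1% Triton X-100, then clarified at 15,000 g. Rab10 Thr73 phosphorylation was measured by quantitative immunoblotting of 15 to 20 μg protein on 4-12% Bis-Tris gels.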

Assay [2] has as its system Rab10 pThr73. The experiment in a line: Rab10 Thr73 dephosphorylation (immunoblot) in LRRK2^G2019S MEFs. It is filed as cell-based. The following applies: Mus musculus, read-out: pRab10 inhibited in LRRK2^G2019S MEFs.
In assay [3] the test system is Rab10 pThr73. Described as above. The following applies: Mus musculus; for inhibition at 1 µM: read-out: pRab10 inhibited in LRRK2^G2019S MEFs; for EC50: dose response, 4 h treatment, read-out: G2019S MEFs-pRab10-dephosphorylation EC50. It counts as cell-based, mouse.

T2 sequence (Q5S006 whole entry G2019S): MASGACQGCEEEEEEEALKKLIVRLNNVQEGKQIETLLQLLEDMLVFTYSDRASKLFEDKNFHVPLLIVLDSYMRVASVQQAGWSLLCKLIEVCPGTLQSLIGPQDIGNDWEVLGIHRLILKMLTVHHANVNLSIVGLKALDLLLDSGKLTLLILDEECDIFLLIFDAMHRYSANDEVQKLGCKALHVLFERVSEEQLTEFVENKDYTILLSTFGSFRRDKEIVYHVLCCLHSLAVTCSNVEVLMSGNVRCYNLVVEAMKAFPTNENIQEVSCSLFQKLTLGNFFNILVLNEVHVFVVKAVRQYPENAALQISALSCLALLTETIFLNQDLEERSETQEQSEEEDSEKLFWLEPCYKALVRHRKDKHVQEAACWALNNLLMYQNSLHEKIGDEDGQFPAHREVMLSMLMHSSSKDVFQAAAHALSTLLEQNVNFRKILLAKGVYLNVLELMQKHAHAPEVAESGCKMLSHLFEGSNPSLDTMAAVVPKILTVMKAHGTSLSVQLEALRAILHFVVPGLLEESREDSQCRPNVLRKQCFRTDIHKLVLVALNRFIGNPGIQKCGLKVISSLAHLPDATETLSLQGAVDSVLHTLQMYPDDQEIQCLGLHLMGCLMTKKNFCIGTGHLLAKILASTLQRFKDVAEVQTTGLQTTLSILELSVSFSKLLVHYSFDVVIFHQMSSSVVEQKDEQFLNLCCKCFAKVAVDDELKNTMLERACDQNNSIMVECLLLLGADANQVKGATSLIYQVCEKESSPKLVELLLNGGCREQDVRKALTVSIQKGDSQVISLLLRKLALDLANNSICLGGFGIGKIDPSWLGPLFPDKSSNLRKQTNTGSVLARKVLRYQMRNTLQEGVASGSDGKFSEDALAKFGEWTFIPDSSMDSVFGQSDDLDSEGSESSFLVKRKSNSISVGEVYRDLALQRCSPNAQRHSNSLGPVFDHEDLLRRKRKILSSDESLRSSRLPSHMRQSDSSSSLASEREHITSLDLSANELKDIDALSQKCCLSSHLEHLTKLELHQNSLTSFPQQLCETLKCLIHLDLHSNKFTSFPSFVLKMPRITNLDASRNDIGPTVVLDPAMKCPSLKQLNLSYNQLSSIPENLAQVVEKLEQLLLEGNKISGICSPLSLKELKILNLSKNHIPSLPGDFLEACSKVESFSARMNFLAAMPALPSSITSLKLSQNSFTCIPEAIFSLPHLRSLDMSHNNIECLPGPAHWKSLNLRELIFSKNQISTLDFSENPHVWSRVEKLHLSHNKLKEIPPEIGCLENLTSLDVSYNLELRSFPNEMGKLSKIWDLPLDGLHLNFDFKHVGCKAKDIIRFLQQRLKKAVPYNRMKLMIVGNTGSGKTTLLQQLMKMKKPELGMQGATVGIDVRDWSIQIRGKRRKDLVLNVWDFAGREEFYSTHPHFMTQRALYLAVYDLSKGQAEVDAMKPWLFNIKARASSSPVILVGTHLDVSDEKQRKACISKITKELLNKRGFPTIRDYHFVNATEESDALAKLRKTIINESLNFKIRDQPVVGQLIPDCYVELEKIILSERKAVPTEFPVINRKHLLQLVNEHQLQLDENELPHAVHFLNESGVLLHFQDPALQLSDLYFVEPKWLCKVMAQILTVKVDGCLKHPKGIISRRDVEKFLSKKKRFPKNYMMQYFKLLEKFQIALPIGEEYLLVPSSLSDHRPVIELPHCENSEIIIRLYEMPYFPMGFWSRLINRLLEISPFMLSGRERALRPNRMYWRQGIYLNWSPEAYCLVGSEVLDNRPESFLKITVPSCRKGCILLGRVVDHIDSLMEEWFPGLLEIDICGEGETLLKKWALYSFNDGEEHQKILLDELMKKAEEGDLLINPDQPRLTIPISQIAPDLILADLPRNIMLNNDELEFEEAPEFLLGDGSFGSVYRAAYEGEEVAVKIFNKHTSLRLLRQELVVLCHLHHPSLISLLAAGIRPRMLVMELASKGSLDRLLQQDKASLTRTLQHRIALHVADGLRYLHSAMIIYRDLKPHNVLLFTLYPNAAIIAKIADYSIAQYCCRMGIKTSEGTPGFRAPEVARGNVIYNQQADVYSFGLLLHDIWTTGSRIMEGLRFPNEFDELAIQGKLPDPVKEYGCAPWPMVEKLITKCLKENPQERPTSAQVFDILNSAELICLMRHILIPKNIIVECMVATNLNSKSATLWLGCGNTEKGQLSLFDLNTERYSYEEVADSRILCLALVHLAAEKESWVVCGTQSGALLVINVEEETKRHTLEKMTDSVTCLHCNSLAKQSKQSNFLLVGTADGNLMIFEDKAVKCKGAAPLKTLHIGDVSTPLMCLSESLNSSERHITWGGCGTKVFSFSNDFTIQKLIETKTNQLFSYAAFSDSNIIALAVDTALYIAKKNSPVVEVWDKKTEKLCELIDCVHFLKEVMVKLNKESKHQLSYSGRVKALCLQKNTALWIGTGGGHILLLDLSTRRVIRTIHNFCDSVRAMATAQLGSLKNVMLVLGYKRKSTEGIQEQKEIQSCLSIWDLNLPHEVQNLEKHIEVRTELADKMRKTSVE
T1 sequence (Q5S006 whole entry): as the sequence (Q5S006 whole entry G2019S) above, with S2019G counted along it

As usually defined, the Dmax is the greatest extent of degradation seen. Broadly, the EC50 is the concentration giving half of the maximal effect. On to `CNc1nc(Nc2ccc(C(=O)N3CCC4(CCN(C[C@H]5CC[C@H](CSC(C)(C)C(NC(=O)C6(F)CC6)C(=O)N6C[C@H](O)C[C@H]6C(=O)NCc6ccc(-c7scnc7C)cc6)CC5)CC4)CC3)cc2OC)ncc1Cl` (stereo partly drawn) [XL02038, (2S,4R)-1-((S)-3-((((1R,4S)-4-((9-(4-((5-chloro-4-(methylamino)pyrimidin-2-yl)amino)-3-methoxybenzoyl)-3,9-diazaspiro[5.5]undecan-3-yl)methyl)cyclohexyl)methyl)thio)-2-(1-fluorocyclopropane-1-carboxamido)-3-methylbutanoyl)-4-hydroxy-N-(4-(4-methylthiazol-5-yl)benzyl)pyrrolidine-2-carboxamide], for which the Dmax on LRRK2^WT was determined as 65%; on LRRK2^G2019S, 79%. For the same compound, the inhibition at 0.033 µM with Rab10 pThr73 [1] (33 nM/4 h treatment) was 0 to 70%; with Rab10 pThr73 [1] (33 nM/24 h treatment) it was 0 to 80%; in the assay on Rab10 pThr73 [2] (33 nM/4 h treatment) it was 0 to 90%; in the assay on Rab10 pThr73 [2] (33 nM/24 h treatment), 30 to 90%. In addition, the inhibition at 1 µM is 80 to 100% in the assay with Rab10 pThr73 [1] (1 μM/4 h treatment), 80 to 100% with Rab10 pThr73 [1] (1 μM/24 h treatment), 10 to 100% with Rab10 pThr73 [3] (1 μM/4 h treatment) and 80 to 100% in the assay on Rab10 pThr73 [3] (1 μM/24 h treatment). For the same compound, the figures for the EC50 in the assay on Rab10 pThr73 [1] and in the assay with Rab10 pThr73 [3] were 14 nM and 10 nM, respectively.
As usually defined, the DC50 is the concentration at which degradation of the target reaches its halfway point. Low readings indicate degradation at low concentration, high ones degradation only at high concentration. In the case of `CNc1nc(Nc2ccc(C(=O)N3CCN(C[C@H]4CC[C@H](CSC(C)(C)[C@H](NC(=O)C5(F)CC5)C(=O)N5C[C@H](O)CC5C(=O)NCc5ccc(-c6scnc6C)cc5F)CC4)CC3)cc2OC)ncc1Cl` (stereo partly drawn) [XL02047, (2S,4R)-1-(®-3-((((1r,4R)-4-((4-(4-((5-chloro-4-(methylamino)pyrimidin-2-yl)amino)-3-methoxybenzoyl)piperazin-1-yl)methyl)cyclohexyl)methyl)thio)-2-(1-fluorocyclopropane-1-carboxamido)-3-methylbutanoyl)-N-(2-fluoro-4-(4-methylthiazol-5-yl)benzyl)-4-hydroxypyrrolidine-2-carboxamide], the half-maximal degradation concentration (DC50) worked out at 45 nM on LRRK2^WT and 60 nM at LRRK2^G2019S. Moreover, the greatest degradation seen (Dmax) is 78% on LRRK2^WT and 79% at LRRK2^G2019S. The inhibition at 0.033 µM in the assay with Rab10 pThr73 [1] (33 nM/4 h treatment) lay in the range of 0 to 70%; in the assay on Rab10 pThr73 [1] (33 nM/24 h treatment), 0 to 80%; in the assay with Rab10 pThr73 [2] (33 nM/4 h treatment) it was 0 to 90%; with Rab10 pThr73 [2] (33 nM/24 h treatment) it was 30 to 90%. Further, the inhibition at 1 µM was in the range of 80 to 100% in the assay on Rab10 pThr73 [1] (1 μM/4 h treatment), 80 to 100% in the assay with Rab10 pThr73 [1] (1 μM/24 h treatment), 10 to 100% in the assay with Rab10 pThr73 [3] (1 μM/4 h treatment) and 80 to 100% in the assay with Rab10 pThr73 [3] (1 μM/24 h treatment). In addition, the EC50 in the assay with Rab10 pThr73 [1] was 228 nM; with Rab10 pThr73 [3] it was 73 nM.
As for `CNc1nc(Nc2ccc(C(=O)N3CCN(C[C@H]4CC[C@H](CSC(C)(C)[C@H](NC(=O)C5(F)CC5)C(=O)N5C[C@H](O)CC5C(=O)NCc5ccc(-c6scnc6C)cc5C)CC4)CC3)cc2OC)ncc1Cl` (stereo partly drawn) [XL02048, (2S,4R)-1-((R)-3-((((1R,4R)-4-((4-(4-((5-chloro-4-(methylamino)pyrimidin-2-yl)amino)-3-methoxybenzoyl)piperazin-1-yl)methyl)cyclohexyl)methyl)thio)-2-(1-fluorocyclopropane-1-carboxamido)-3-methylbutanoyl)-4-hydroxy-N-(2-methyl-4-(4-methylthiazol-5-yl)benzyl)pyrrolidine-2-carboxamide], the DC50 came to 46 nM on LRRK2^WT and 23 nM on LRRK2^G2019S. For the same compound, the Dmax at LRRK2^WT turned out to be 81.5%; on LRRK2^G2019S, 83.5%. The inhibition at 0.033 µM lay in the range of 0 to 70% in the assay with Rab10 pThr73 [1] (33 nM/4 h treatment), 0 to 80% with Rab10 pThr73 [1] (33 nM/24 h treatment), 0 to 90% in the assay with Rab10 pThr73 [2] (33 nM/4 h treatment) and 30 to 90% in the assay on Rab10 pThr73 [2] (33 nM/24 h treatment). The inhibition at 1 µM was 80 to 100% with Rab10 pThr73 [1] (1 μM/4 h treatment), 80 to 100% with Rab10 pThr73 [1] (1 μM/24 h treatment), 10 to 100% in the assay on Rab10 pThr73 [3] (1 μM/4 h treatment) and 80 to 100% in the assay on Rab10 pThr73 [3] (1 μM/24 h treatment). Further, the EC50 amounted to 72 nM in the assay with Rab10 pThr73 [1] and 53 nM in the assay with Rab10 pThr73 [3].

These data come from patent US20260001875A1, “AMINOPYRIMIDINYL DERIVATIVES FOR THE TREATMENT OF PARKINSON'S DISEASE” (UNIVERSITY OF DUNDEE, priority 2022, published 2026).
